Assay results as given in paper PMC7442255, “Characterization of the Corynebacterium glutamicum dehydroshikimate dehydratase QsuB and its potential for microbial production of protocatechuic acid” (PLoS ONE, 2020).
Values joined by “and” are separate entries in the source; they are usually repeats but may differ in a detail not shown here. Equal values may be shown once. Read-outs that look alike come from different tables or passages of the source.

Key:
QsuB = QsuB (Corynebacterium glutamicum, UniProt Q8NT86); experiment: DSD activity assay of purified QsuB (3,4-DHBA formation at 290 nm); assay type: biochemical
N-QsuB = N-QsuB (Corynebacterium glutamicum, UniProt Q8NT86); experiment: DSD activity assay of purified N-QsuB (N-terminal domain of QsuB); assay type: biochemical
QsuB C-terminal domain = experiment: Test of dioxygenase activity of the C-terminal domain towards 3,4-DHBA (UV spectrum); assay type: biochemical, Corynebacterium glutamicum; conditions: pH 7.5, incubation with QsuB up to 60 min
Protocol: An inhibition type and inhibition constants of the enzyme reaction were determined by a graphical method. The experimental data were plotted as (Vmax–v)/v versus the inhibitor concentration (0 ‒ 0.4 mM 3,4-DHBA) at 0.5/ 1/ 1.5 mM concentrations of DHS, where Vmax and v represented the maximal velocity and the velocity in the absence and presence of inhibitor with given concentrations of the substrate, respectively. The dioxygenase activity of the C-terminal domain was tested with the crude extracts in the reaction mixture of 0.1 M Tris/HCl buffer (pH 7.5), 10 mM MgCl2, 0.1 mM DHBA, and 30 nM of overall protein.
Thus, a possible activity of the C-terminal domain leading to conversion of 3,4-DHBA into another product was not detected under our experimental conditions.

C. glutamicum = conditions: cited from earlier work
E. coli = conditions: cited from earlier work
QuiC1 = system: QuiC1; design: method as in PMID 27706847; conditions: cited from earlier work
AsbF B. t. 97-27 = system: AsbF B. t. 97-27; design: method as in PMID 18975921; conditions: pH 8.6, 37°C ref [12], cited from earlier work
[1] = target: N-QsuB, N-terminal domain of QsuB (Corynebacterium glutamicum); experiment: SEC; Superose 6 Increase 10/300 GL; 50 mM sodium phosphate (pH 7.0), 150 mM NaCl; 0.5 ml/min; A280; mass from a calibration curve of standard proteins; self-association of N-QsuB
[2] = target: QsuB, dehydroshikimate dehydratase (DSD) from Corynebacterium glutamicum (Corynebacterium glutamicum); experiment: SEC; Superose 6 Increase 10/300 GL; 50 mM Tris-HCl (pH 7.5), 500 mM NaCl, 5% v/v glycerol; 0.4 ml/min; A280; mass from a calibration curve of standard proteins; self-association of QsuB
[3] = substrate: O=C(O)C1=CC(=O)C(O)C(O)C1; experiment: DSD activity assay of purified N-QsuB (N-terminal domain of QsuB); assay type: biochemical, Corynebacterium glutamicum; conditions: other: N-QsuB, pH 7.5, 20°C
[4] = QsuB, 1 mM DHS, 10 mM metal salt, normalized against cobalt
[5] = N-QsuB, 1 mM DHS, 10 mM metal salt, normalized against cobalt

QsuB, sequence (Q8NT86 entry or part of it): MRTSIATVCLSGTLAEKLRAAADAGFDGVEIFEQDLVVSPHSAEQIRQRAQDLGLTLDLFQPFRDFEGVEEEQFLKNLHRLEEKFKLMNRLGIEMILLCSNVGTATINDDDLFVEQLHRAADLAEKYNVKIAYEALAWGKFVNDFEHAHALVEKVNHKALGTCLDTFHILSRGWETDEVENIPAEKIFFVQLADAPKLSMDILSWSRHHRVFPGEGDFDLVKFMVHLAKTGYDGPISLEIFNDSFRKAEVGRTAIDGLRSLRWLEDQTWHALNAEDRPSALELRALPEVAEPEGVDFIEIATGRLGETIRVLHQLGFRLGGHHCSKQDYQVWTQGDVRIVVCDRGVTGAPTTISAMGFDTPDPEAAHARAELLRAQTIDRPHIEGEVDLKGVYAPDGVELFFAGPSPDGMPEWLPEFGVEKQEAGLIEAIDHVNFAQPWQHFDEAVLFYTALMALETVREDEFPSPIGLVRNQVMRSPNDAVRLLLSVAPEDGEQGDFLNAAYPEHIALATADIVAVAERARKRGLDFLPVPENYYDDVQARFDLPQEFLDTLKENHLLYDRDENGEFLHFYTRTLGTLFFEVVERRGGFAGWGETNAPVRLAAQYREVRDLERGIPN

## O=C(O)c1ccc(O)c(O)c1 [3,4-DHBA, 3,4-dihydroxybenzoic acid]
QsuB; QsuB, quotient velocity plot
  inhibition type: mix inhibition type
QsuB; QsuB, quotient velocity plot, 0.5/1/1.5 mM DHS
  Ki' (binding to the enzyme-substrate complex): ~ 0.96 mM
QsuB; QsuB, quotient velocity plot, 0.5/1/1.5 mM DHS, read-out: Ki (binding to the enzyme)
  Ki: ~380 µM
N-QsuB; N-QsuB, quotient velocity plot
  inhibition type: noncompetitive inhibition
N-QsuB; N-QsuB, quotient velocity plot, 0.5/1/1.5 mM DHS, read-out: Ki (binding to the enzyme)
  Ki: ~690 µM
QsuB C-terminal domain
  conversion of 3,4-DHBA (change of UV spectrum): no difference in the UV spectrum was observed

## [Cl-].[Cl-].[Co+2] [Co, CoCl2]
QsuB
  Specific activity (relative DSD activity with divalent metal): 100%
N-QsuB
  Specific activity (relative DSD activity with divalent metal): 100%
C. glutamicum
  Co^2+ concentration at which growth is possible: 2 mM
E. coli
  Co^2+ concentration tolerated: < 1 mM

## O=C(O)C1=CC(=O)C(O)C(O)C1 (stereo not shown) [DHS, 3-dehydroshikimic acid]
QsuB; QsuB, substrate DHS, pH 7.5, 20°C
  kcat: 60.8 ± 0.9 s⁻¹
QsuB; QsuB, substrate inhibition, calculated from data of Fig 6, read-out: IC50 (decrease of DSD activity by substrate DHS)
  IC50: ~4200 µM
N-QsuB; N-QsuB, substrate inhibition, calculated from data of Fig 6, read-out: IC50 (decrease of DSD activity by substrate DHS)
  IC50: ~5500 µM
QuiC1; QuiC1, pH 7.5, 25°C ref [15], read-out: Km (DHS)
  Km: 331 ± 51 µM
QuiC1; QuiC1, substrate DHS, pH 7.5, 25°C ref [15]
  kcat: 163.6 ± 8.5 s⁻¹
AsbF B. t. 97-27; read-out: Km (DHS)
  Km: 125 ± 14 µM
AsbF B. t. 97-27; substrate DHS
  kcat: 3.6 ± 0.2 s⁻¹

## O=C(O)CN(CCN(CC(=O)O)CC(=O)O)CC(=O)O [EDTA]
QsuB
  effect on DSD activity without added metal ions: inhibited
N-QsuB
  effect on DSD activity without added metal ions: inhibited

## [Cl-].[Cl-].[Mg+2] [Mg, MgCl2]
QsuB; [4]
  Specific activity (relative DSD activity with divalent metal): 24%
N-QsuB; [5]
  Specific activity (relative DSD activity with divalent metal): 22%

## [Cl][Mn][Cl] [Mn, MnCl2]
QsuB; [4]
  Specific activity (relative DSD activity with divalent metal): 17%
N-QsuB; [5]
  Specific activity (relative DSD activity with divalent metal): 21%

## N-QsuB, N-terminal domain of QsuB (domain or fragment)
[1]
  stoichiometry N: 2

## QsuB, dehydroshikimate dehydratase (DSD) from Corynebacterium glutamicum (enzyme)
[2]
  percent present as monomers: 15%
  percent present as octamers: 60%
  percent present as tetramers: 25%
  stoichiometry N: 8 and 4

B1: N-QsuB (Corynebacterium glutamicum ATCC 13032) (protein)
chain: MRTSIATVCLSGTLAEKLRAAADAGFDGVEIFEQDLVVSPHSAEQIRQRAQDLGLTLDLFQPFRDFEGVEEEQFLKNLHRLEEKFKLMNRLGIEMILLCSNVGTATINDDDLFVEQLHRAADLAEKYNVKIAYEALAWGKFVNDFEHAHALVEKVNHKALGTCLDTFHILSRGWETDEVENIPAEKIFFVQLADAPKLSMDILSWSRHHRVFPGEGDFDLVKFMVHLAKTGYDGPISLEIFNDSFRKAEVGRTAIDGLRSLRWLEDQTWHALNAEDRPSALELRALPEVAEPEGVDF
[3]
  Km: 473 ± 71 µM
  kcat: 23.4 ± 0.4 s⁻¹
  kcat/Km: 49500 ± 5600 M⁻¹ s⁻¹
